In patent US20100227889A1, “Benzimidazole Derivatives” (priority 2006, published 2010):

Each molecule was assayed against T1, human PCaR (Homo sapiens, UniProt P41180) (assay: Assay for intracellular free calcium (inhibition of calcium transients stimulated by extracellular calcium)). Conditions: CCL39 fibroblasts stably transfected with human PCaR; "based on the above described assay".
T1 construct: expressed in transfected cells; host or cells: CCL39 fibroblasts (stably transfected)
T1 sequence (P41180 20-1078): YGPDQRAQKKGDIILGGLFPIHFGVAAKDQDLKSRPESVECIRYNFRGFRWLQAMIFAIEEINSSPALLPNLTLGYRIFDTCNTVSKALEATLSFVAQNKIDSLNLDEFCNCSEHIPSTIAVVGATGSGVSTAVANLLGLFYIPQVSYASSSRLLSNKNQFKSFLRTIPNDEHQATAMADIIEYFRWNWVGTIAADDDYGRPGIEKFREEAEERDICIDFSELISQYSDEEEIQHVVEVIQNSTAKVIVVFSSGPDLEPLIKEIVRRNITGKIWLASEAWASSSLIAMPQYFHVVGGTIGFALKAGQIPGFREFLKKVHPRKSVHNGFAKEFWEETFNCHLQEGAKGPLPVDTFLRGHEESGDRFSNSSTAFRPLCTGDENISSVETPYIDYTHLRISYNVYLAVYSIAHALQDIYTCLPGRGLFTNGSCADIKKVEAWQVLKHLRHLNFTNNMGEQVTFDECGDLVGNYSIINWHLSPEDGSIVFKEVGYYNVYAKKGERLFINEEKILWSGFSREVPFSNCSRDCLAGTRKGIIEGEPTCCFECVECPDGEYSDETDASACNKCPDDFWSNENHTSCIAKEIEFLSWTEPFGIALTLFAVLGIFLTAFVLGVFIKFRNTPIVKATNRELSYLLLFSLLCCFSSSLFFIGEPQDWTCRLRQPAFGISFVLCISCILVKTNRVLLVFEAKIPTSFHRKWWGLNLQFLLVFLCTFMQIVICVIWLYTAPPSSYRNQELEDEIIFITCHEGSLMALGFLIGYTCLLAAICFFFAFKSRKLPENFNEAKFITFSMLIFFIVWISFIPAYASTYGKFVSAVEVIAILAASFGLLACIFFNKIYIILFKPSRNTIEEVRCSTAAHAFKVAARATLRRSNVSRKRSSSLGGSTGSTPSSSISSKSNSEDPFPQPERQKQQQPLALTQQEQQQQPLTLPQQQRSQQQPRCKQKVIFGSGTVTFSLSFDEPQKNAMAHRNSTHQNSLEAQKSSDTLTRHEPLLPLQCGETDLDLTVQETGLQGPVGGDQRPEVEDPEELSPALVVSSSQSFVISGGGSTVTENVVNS
Assay type: cell-based
Description: An alternative method to determine antagonism at the PCaR consists in measuring the inhibition of intracellular calcium transients stimulated by extracellular calcium. CCL39 fibroblasts stably transfected with human PCaR are seeded at 40′000 cells/well into 96-well Viewplates and incubated for 24 hours. Medium is then removed and replaced with fresh medium containing 2 μM Fluo-3 AM (Molecular Probes, Leiden, The Netherlands), In routine experiments, cells are incubated at 37° C., 5% CO2 for 1 h. Afterwards, plates are washed twice with mHBS and wells are refilled with 100 μl mHBS containing the test compounds. Incubation is continued at room temperature for 15 minutes. To record changes of intracellular free calcium, plates are transferred to fluorescence-imaging plate reader (Molecular Devices, Sunnyvale, Calif., USA). A baseline consisting in 5 measurements of 0.4 seconds each (laser excitation 488 nm) is recorded. Cells are then stimulated with calcium (2.5 mM final), and fluorescence changes recorded over a period of 3 minutes.

COCCn1c(-c2ccc(C(C)C)cc2)nc2c(Br)c(Cc3cccnc3SC)cc(OC)c21 [Example 1, 4-Bromo-2-(4-isopropyl-phenyl)-7-methoxy-1-(2-methoxy-ethyl)-5-(2-methylsulfanyl-pyridin-3-ylmethyl)-1H-benzoimidazole] and COCCn1c(-c2ccc(C(C)C)cc2)nc2c(C(F)(F)F)c(Cc3cccnc3[S+](C)[O-])cc(OC)c21 (stereo not shown) [Example 3, 2-(4-Isopropyl-phenyl)-5-(2-methanesulfinyl-pyridin-3-ylmethyl)-7-methoxy-1-(2-methoxy-ethyl)-4-trifluoromethyl-1H-benzoimidazole] are within 1.5-fold of each other in IC50: 3.4 nM for the first, 2.6 nM for the second.

Going from COCCn1c(-c2ccc(C(C)C)cc2)nc2c(C(F)(F)F)c(Cc3cccnc3OC(C)C)cc(OC)c21 [Example 8, 5-(2-Isopropoxy-pyridin-3-ylmethyl)-2-(4-Isopropyl-phenyl)-7-methoxy-1-(2-methoxy-ethyl)-4-trifluoromethyl-1H-benzoimidazole] to C#CCOc1ncccc1Cc1cc(OC)c2c(nc(-c3ccc(C(C)C)cc3)n2CCOC)c1C(F)(F)F [Example 9, 2-(4-Isopropyl-phenyl)-7-methoxy-1-(2-methoxy-ethyl)-5-(2-prop-2-ynyloxy-pyridin-3-ylmethyl)-4-trifluoromethyl-1H-benzoimidazole], the IC50 falls from 3.2 nM to 1.8 nM (1.8-fold).
